Test results from patent US20130217664A1, “NOVEL COMPOUNDS USEFUL FOR THE TREATMENT OF DEGENERATIVE AND INFLAMMATORY DISEASES” (priority 2012, published 2013).
Read-outs that look alike come from different tables or passages of the source.

How the values were obtained:
human JAK3 = target: T1, human JAK3 (Homo sapiens, UniProt P52333); test: JAK3 inhibition assay; type: biochemical; conditions: recombinant human JAK3 catalytic domain; polyGT substrate
T1 construct: catalytic domain (amino acids 781-1124; catalog number PV3855); purchased Invitrogen PV3855
T1 sequence (P52333 781-1124): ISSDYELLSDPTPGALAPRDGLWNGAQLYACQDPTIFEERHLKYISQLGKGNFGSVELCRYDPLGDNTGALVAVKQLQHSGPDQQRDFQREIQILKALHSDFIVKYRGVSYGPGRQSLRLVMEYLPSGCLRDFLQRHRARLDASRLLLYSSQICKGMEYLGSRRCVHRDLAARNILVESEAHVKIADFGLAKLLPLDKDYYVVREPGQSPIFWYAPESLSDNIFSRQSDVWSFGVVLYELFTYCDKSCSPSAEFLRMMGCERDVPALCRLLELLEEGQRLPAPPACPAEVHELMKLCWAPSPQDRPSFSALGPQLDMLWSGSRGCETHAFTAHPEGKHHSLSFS
In short: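 Radiometric kinase assay: 0.5 ng JAK3 with 2.5 μg polyGT in Tris pH 7.5/MgCl2 buffer, 1 μM ATP plus 0.25 μCi 33P-γ-ATP, 1% DMSO, 45 min at 30 °C, stopped with phosphoric acid.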

[1] = tested on: pSTAT1(2)-luciferase reporter in HeLa cells triggered with human OSM; test: JAK-STAT signalling assay; type: cell-based; conditions: HeLa cells, pSTAT1(2)-luciferase reporter, human OSM 33 ng/mL, read-out: JAK-STAT IC50
In short: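 Compound added 60 min before 33 ng/mL (final) human OSM; after overnight stimulation at 37 °C, luciferase signal from a transiently transfected pSTAT1(2) reporter in HeLa cells was read, with LacZ as internal control. EC50 derived from percent-inhibition dose-response curves.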

Compound	IC50 (human JAK3)	IC50 ([1]; Homo sapiens, HeLa)	IC50 [1]
CCc1cc(OC2CCN(S(C)(=O)=O)C2)ccc1N(C)c1cc2c(cn1)ncn2C (stereo not drawn) [Compound 110, N-(2-Ethyl-4-((1-(methylsulfonyl)pyrrolidin-3-yl)oxy)phenyl)-N,1-dimethyl-1H-imidazo[4,5-c]pyridin-6-amine]	101 to 500 nM	> 1000 nM	–
CCc1cc(-c2ccc(C#N)nc2)ccc1N(C)c1cc2c(cn1)ncn2C [Compound 114, 5-(3-ethyl-4-(methyl(1-methyl-1H-imidazo[4,5-c]pyridin-6-yl)amino)phenyl)picolino-nitrile]	101 to 500 nM	1 to 500 nM	–
CCc1ccc(C(=O)NC(C)(C)C)cc1N(C)c1cc2c(cn1)ncn2C [Compound 123, N-tert-butyl-4-ethyl-3-(methyl(1-methyl-1H-imidazo[4,5-c]pyridin-6-yl)amino)benzamide]	> 1000 nM	> 1000 nM	–
CCc1cc(-c2ccc(CN)s2)ncc1N(C)c1cc2c(cn1)ncn2C [Compound 303, [6-(5-Aminomethyl-thiophen-2-yl)-4-ethyl-pyridin-3-yl]-methyl-(1-methyl-1H-imidazo[4,5-c]pyridin-6-yl)-amine]	> 1000 nM	–	> 1000 nM
CCc1cc(-c2ccc(C)s2)ncc1N(C)c1cc2c(cn1)ncn2C [Compound 311, [4-Ethyl-6-(5-methyl-thiophen-2-yl)-pyridin-3-yl]-methyl-(1-methyl-1H-imidazo[4,5-c]pyridin-6-yl)-amine]	101 to 500 nM	1 to 500 nM	–
COc1cc(-c2c(C)nn(C)c2C)ncc1N(C)c1cc2c(cn1)ncn2C [Compound 312]	> 1000 nM	–	> 1000 nM
COc1cc(N2CCOCC2)ncc1N(C)c1cc2c(cn1)ncn2C [Compound 313, (4-Methoxy-6-morpholin-4-yl-pyridin-3-yl)-methyl-(1-methyl-1H-imidazo[4,5-c]pyridine-6-yl)-amine]	501 to 1000 nM	–	> 1000 nM
COc1ccc(S(=O)(=O)N2CCCCC2)cc1N(C)c1cc2c(cn1)ncn2C [Compound 314, [2-Methoxy-5-(piperidine-1-sulfonyl)-phenyl]-methyl-(1-methyl-1H-imidazo[4,5-d]pyridin-6-yl)-amine]	> 1000 nM	–	> 1000 nM
COc1cc(S(=O)(=O)N2CCOCC2)ccc1N(C)c1cc2c(cn1)ncn2C [Compound 315, [2-Methoxy-4-(morpholine-4-sulfonyl)-phenyl]-methyl-(1-methyl-1H-imidazo[4,5-d]pyridin-6-yl)-amine]	> 1000 nM	–	> 1000 nM

Now from value to molecule:

IC50 (human JAK3)	IC50 ([1]; Homo sapiens, HeLa)	IC50 [1]	Compound
101 to 500 nM	501 to 1000 nM	–	CCc1cc(Cn2ccnc2)ccc1N(C)c1cc2c(cn1)ncn2C [Compound 111, N-(4-((1H-imidazol-1-yl)methyl)-2-ethylphenyl)-N,1-dimethyl-1H-imidazo[4,5-c]pyridin-6-amine]
> 1000 nM	> 1000 nM	–	CCc1cc(C(=O)NCCN(C)C)ccc1N(C)c1cc2c(cn1)ncn2C [Compound 119, N-(2-(dimethylamino)ethyl)-3-ethyl-4-(methyl(1-methyl-1H-imidazo[4,5-c]pyridin-6-yl)amino)benzamide]
101 to 500 nM	> 1000 nM	–	CCc1cc(C(=O)NCC#N)ccc1N(C)c1cc2c(cn1)ncn2C [Compound 120, N-(cyanomethyl)-3-ethyl-4-(methyl(1-methyl-1H-imidazo[4,5-c]pyridin-6-yl)amino)benzamide]
0.01 to 100 nM	1 to 500 nM	–	CCc1cc(-c2ccsc2)ccc1N(C)c1cc2c(cn1)ncn2C [Compound 127, N-(2-ethyl-4-(thiophen-3-yl)phenyl)-N,1-dimethyl-1H-imidazo[4,5-c]pyridin-6-amine]
> 1000 nM	–	> 1000 nM	CCc1cc(-c2ccc(CNC(=O)OC(C)(C)C)s2)ncc1N(C)c1cc2c(cn1)ncn2C [Compound 302]
0.01 to 100 nM	–	1 to 500 nM	CCc1cc(-c2ccc(Cl)s2)ncc1N(C)c1cc2c(cn1)ncn2C [Compound 304, [6-(5-Chloro-thiophen-2-yl)-4-ethyl-pyridin-3-yl]-methyl-(1-methyl-1H-imidazo[4,5-c]pyridin-6-yl)-amine]
